Reference: the NIST ThermoML archive (doi:10.1021/je900124n)
Values joined by “and” are separate entries in the source; they are usually repeats but may differ in a detail not shown here. Identical values can stand only once.

Conditions: Fluid (supercritical or subcritical phases), Buoyancy - hydrostatic balance with magnetic suspension - two sinkers

CCC [propane]
Conditions | mass density
370.82 K, 4316.6 kPa | 196.656 kg/m3 and 196.671 kg/m3
370.82 K, 4316.7 kPa | 196.709 kg/m3 and 196.642 kg/m3
370.82 K, 4316.8 kPa | 196.799 kg/m3
370.83 K, 4238.2 kPa | 146.891 kg/m3 and 146.895 kg/m3 and 146.889 kg/m3
370.83 K, 4238.3 kPa | 146.899 kg/m3 and 146.89 kg/m3 and 146.892 kg/m3
370.83 K, 4316.8 kPa | 196.721 kg/m3 and 196.767 kg/m3 and 196.684 kg/m3
370.83 K, 4323.4 kPa | 219.805 kg/m3 [middle of 5 runs]
370.83 K, 4323.5 kPa | 219.874 kg/m3 and 219.908 kg/m3 and 219.975 kg/m3
370.83 K, 4330.9 kPa | 243.656 kg/m3 [middle of 4 runs]
370.83 K, 4331 kPa | 243.626 kg/m3 and 243.674 kg/m3 and 243.648 kg/m3
370.83 K, 4331.1 kPa | 243.671 kg/m3
370.85 K, 4240.8 kPa | 147.314 kg/m3
370.85 K, 4240.9 kPa | 147.324 kg/m3
370.85 K, 4306.4 kPa | 177.862 kg/m3
370.85 K, 4306.5 kPa | 177.914 kg/m3 and 177.843 kg/m3
370.85 K, 4306.6 kPa | 177.931 kg/m3 and 177.874 kg/m3
370.85 K, 4322.8 kPa | 208.978 kg/m3 and 208.99 kg/m3
370.85 K, 4322.9 kPa | 208.933 kg/m3 and 209.016 kg/m3
370.85 K, 4323 kPa | 209.074 kg/m3
370.85 K, 4327.4 kPa | 226.65 kg/m3
370.85 K, 4327.5 kPa | 226.647 kg/m3
370.85 K, 4353.6 kPa | 265.164 kg/m3
370.85 K, 4353.7 kPa | 265.36 kg/m3 and 265.182 kg/m3 and 265.138 kg/m3
370.85 K, 4353.8 kPa | 265.176 kg/m3 [middle of 4 runs]
370.86 K, 4327.6 kPa | 226.701 kg/m3 and 226.673 kg/m3
371.82 K, 4387.3 kPa | 196.837 kg/m3 and 196.769 kg/m3
371.82 K, 4416.6 kPa | 243.565 kg/m3
371.83 K, 4293.5 kPa | 147.926 kg/m3
371.83 K, 4293.6 kPa | 147.93 kg/m3 and 147.934 kg/m3 and 147.924 kg/m3
371.83 K, 4293.7 kPa | 147.947 kg/m3 and 147.93 kg/m3
371.83 K, 4387.3 kPa | 196.784 kg/m3 and 196.769 kg/m3
371.83 K, 4387.4 kPa | 196.809 kg/m3 [middle of 4 runs]
371.83 K, 4400.8 kPa | 219.56 kg/m3
371.83 K, 4400.9 kPa | 219.574 kg/m3 and 219.677 kg/m3 and 219.642 kg/m3
371.83 K, 4401 kPa | 219.681 kg/m3 [middle of 4 runs]
371.83 K, 4416.6 kPa | 243.624 kg/m3
371.83 K, 4416.7 kPa | 243.578 kg/m3 and 243.586 kg/m3
371.83 K, 4416.8 kPa | 243.575 kg/m3 and 243.616 kg/m3 and 243.58 kg/m3
371.83 K, 4416.9 kPa | 243.605 kg/m3
371.85 K, 4295.8 kPa | 148.252 kg/m3
371.85 K, 4295.9 kPa | 148.276 kg/m3 and 148.252 kg/m3
371.85 K, 4370.3 kPa | 177.981 kg/m3
371.85 K, 4370.4 kPa | 178.031 kg/m3 and 177.991 kg/m3 and 178.027 kg/m3
371.85 K, 4370.5 kPa | 178.012 kg/m3
371.85 K, 4397.1 kPa | 208.855 kg/m3 and 208.907 kg/m3
371.85 K, 4397.2 kPa | 208.865 kg/m3 and 208.929 kg/m3 and 208.907 kg/m3
371.85 K, 4407.1 kPa | 226.926 kg/m3
371.85 K, 4407.2 kPa | 226.521 kg/m3 and 226.511 kg/m3
371.85 K, 4450.2 kPa | 265.14 kg/m3
371.85 K, 4450.3 kPa | 265.143 kg/m3
371.85 K, 4450.4 kPa | 265.125 kg/m3 and 265.134 kg/m3 and 265.131 kg/m3
371.86 K, 4407.3 kPa | 226.504 kg/m3 and 226.483 kg/m3
372 K, 4517.4 kPa | 281.197 kg/m3
372 K, 4517.6 kPa | 281.196 kg/m3 and 281.206 kg/m3 and 281.197 kg/m3
372 K, 4517.7 kPa | 281.2 kg/m3 [middle of 4 runs]
375 K, 3980.2 kPa | 100.464 kg/m3 and 100.463 kg/m3
375 K, 3980.3 kPa | 100.468 kg/m3 and 100.463 kg/m3
375 K, 4455 kPa | 148.081 kg/m3 [middle of 5 runs]
375 K, 4455.1 kPa | 148.084 kg/m3 and 148.085 kg/m3 and 148.081 kg/m3
375 K, 4456.1 kPa | 148.366 kg/m3 and 148.364 kg/m3 and 148.371 kg/m3
375 K, 4456.2 kPa | 148.361 kg/m3
375 K, 4568.9 kPa | 178.196 kg/m3 [middle of 4 runs]
375 K, 4569 kPa | 178.185 kg/m3
375 K, 4609.7 kPa | 197.026 kg/m3 and 197.015 kg/m3
375 K, 4609.8 kPa | 197.023 kg/m3 [middle of 5 runs]
375 K, 4630.9 kPa | 208.979 kg/m3
375 K, 4631 kPa | 208.963 kg/m3 and 208.962 kg/m3 and 208.991 kg/m3
375 K, 4631.1 kPa | 208.972 kg/m3
375 K, 4648.5 kPa | 219.668 kg/m3
375 K, 4648.6 kPa | 219.65 kg/m3 [middle of 6 runs]
375 K, 4648.7 kPa | 219.656 kg/m3
375 K, 4660.8 kPa | 226.495 kg/m3
375 K, 4660.9 kPa | 226.503 kg/m3 and 226.483 kg/m3
375 K, 4661 kPa | 226.54 kg/m3
375 K, 4694.5 kPa | 243.594 kg/m3 and 243.602 kg/m3 and 243.583 kg/m3
375 K, 4694.6 kPa | 243.603 kg/m3 [middle of 4 runs]
375 K, 4761.6 kPa | 265.09 kg/m3
375 K, 4761.7 kPa | 265.094 kg/m3 and 265.087 kg/m3
375 K, 4761.8 kPa | 265.087 kg/m3
375 K, 4761.9 kPa | 265.101 kg/m3
375 K, 4846.9 kPa | 281.14 kg/m3 [middle of 4 runs]
375 K, 4847.1 kPa | 281.138 kg/m3 and 281.143 kg/m3
375 K, 5843.8 kPa | 337.161 kg/m3
375 K, 5843.9 kPa | 337.161 kg/m3
375 K, 5844 kPa | 337.161 kg/m3 and 337.159 kg/m3
375 K, 5844.1 kPa | 337.162 kg/m3
375 K, 5844.2 kPa | 337.16 kg/m3 and 337.158 kg/m3
375.01 K, 4661 kPa | 226.502 kg/m3
375.01 K, 4847.1 kPa | 281.141 kg/m3 and 281.139 kg/m3
380 K, 320.18 kPa | 4.576 kg/m3
380 K, 320.19 kPa | 4.576 kg/m3
380 K, 569.88 kPa | 8.3091 kg/m3 and 8.3093 kg/m3
380 K, 569.89 kPa | 8.3092 kg/m3 and 8.3093 kg/m3
380 K, 954.79 kPa | 14.3809 kg/m3
380 K, 954.8 kPa | 14.3809 kg/m3
380 K, 954.81 kPa | 14.3809 kg/m3
380 K, 1441 kPa | 22.71 kg/m3
380 K, 1441.3 kPa | 22.7154 kg/m3
380 K, 1442 kPa | 22.7271 kg/m3
380 K, 1442.3 kPa | 22.733 kg/m3
380 K, 1442.6 kPa | 22.7383 kg/m3
380 K, 2208.6 kPa | 37.8037 kg/m3 [middle of 4 runs]
380 K, 2208.8 kPa | 37.8087 kg/m3
380 K, 3020.8 kPa | 57.7697 kg/m3 and 57.7694 kg/m3
380 K, 3020.9 kPa | 57.7728 kg/m3
380 K, 3021 kPa | 57.7733 kg/m3
380 K, 3021.1 kPa | 57.7794 kg/m3
380 K, 3513.2 kPa | 73.3301 kg/m3
380 K, 3513.4 kPa | 73.3336 kg/m3
380 K, 3513.5 kPa | 73.3364 kg/m3
380 K, 3513.6 kPa | 73.3391 kg/m3 and 73.3404 kg/m3 and 73.3402 kg/m3
380 K, 4131.9 kPa | 100.514 kg/m3
380 K, 4132 kPa | 100.514 kg/m3
380 K, 4132.1 kPa | 100.516 kg/m3 and 100.515 kg/m3
380 K, 4703.8 kPa | 148.075 kg/m3
